Reference: patent US20110053916A1 (Vertex Pharmaceuticals Incorporated, priority 2009, published 2011)

What follows are compounds tested against T1, PknB (Mycobacterium tuberculosis, UniProt P9WI81) (assay: biochemical). Details: 3 nM PknB, 6 uM GarA, 3 μM ATP, 30 min; competitive tight-binding fit; several symbols in a cell = repeat determinations.
T1 construct: made in house
Set-up: species or system M. tuberculosis

T1 sequence (P9WI81 whole entry): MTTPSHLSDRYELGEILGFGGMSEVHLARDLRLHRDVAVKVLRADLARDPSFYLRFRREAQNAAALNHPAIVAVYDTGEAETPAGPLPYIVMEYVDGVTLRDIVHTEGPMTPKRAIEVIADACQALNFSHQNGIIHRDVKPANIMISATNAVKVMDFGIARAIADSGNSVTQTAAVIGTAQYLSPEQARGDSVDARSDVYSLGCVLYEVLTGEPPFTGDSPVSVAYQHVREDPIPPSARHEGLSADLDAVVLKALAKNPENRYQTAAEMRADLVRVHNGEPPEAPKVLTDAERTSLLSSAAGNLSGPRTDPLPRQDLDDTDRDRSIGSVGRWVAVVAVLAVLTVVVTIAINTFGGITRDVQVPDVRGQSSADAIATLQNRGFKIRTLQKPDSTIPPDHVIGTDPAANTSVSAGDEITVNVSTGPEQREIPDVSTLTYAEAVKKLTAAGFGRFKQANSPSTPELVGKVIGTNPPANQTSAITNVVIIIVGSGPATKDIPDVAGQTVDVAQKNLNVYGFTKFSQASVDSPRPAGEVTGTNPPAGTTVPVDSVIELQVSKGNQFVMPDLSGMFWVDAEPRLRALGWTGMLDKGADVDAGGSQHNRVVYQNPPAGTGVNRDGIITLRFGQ

Structure (SMILES)	Ki Values
NS(=O)(=O)c1ccc(-c2ncc(CCO)c(Nc3cc(C4CC4)[nH]n3)n2)s1 [Compound 239, 5-(4-(5-cyclopropyl-1H-pyrazol-3-ylamino)-5-(2-hydroxyethyl)pyrimidin-2-yl)thiophene-2-sulfonamide]	A*, B**
NS(=O)(=O)C/C=C/c1cccc(Nc2cc(C3CC3)[nH]n2)n1 [Compound 270, 3-[6-[(5-cyclopropyl-1H-pyrazol-3-yl)amino]-2-pyridyl]prop-2-ene-1-sulfonamide]	B**, B*, B*, B*
N#Cc1cc(Nc2cc(C3CC3)n[nH]2)nc(-c2ccc(S(N)(=O)=O)s2)n1 [Compound 295, 5-[4-cyano-6-[(5-cyclopropyl-2H-pyrazol-3-yl)amino]-pyrimidin-2-yl]thiophene-2-sulfonamide]	A**, B**

Same assay, conditions: 3 nM PknB, 6 uM GarA, 3 μM ATP, 30 min; competitive tight-binding fit; several symbols in a cell = repeat determinations; read-out: Ki Values

Structure (SMILES)	Ki [nM]
CC(=O)Nc1cnc(-c2ccc(S(N)(=O)=O)s2)nc1Nc1cc(C2CC2)[nH]n1 [Compound 241, N-[4-[(5-cyclopropyl-1H-pyrazol-3-yl)amino]-2-(5-sulfamoyl-2-thienyl)-pyrimidin-5-yl]acetamide]	50 to 100
C#Cc1cnc(-c2ccc(C(O)CCO)s2)nc1Nc1cc(C2CC2)[nH]n1 (stereo not shown) [Compound 242, 1-(5-(4-(5-cyclopropyl-1H-pyrazol-3-ylamino)-5-ethynylpyrimidin-2-yl)thiophen-2-yl)propane-1,3-diol]	10 to 50
C#Cc1cnc(-c2ccc(C(O)CCOC(C)=O)s2)nc1Nc1cc(C2CC2)[nH]n1 (stereo not shown) [Compound 243, 3-(5-(4-(5-cyclopropyl-1H-pyrazol-3-ylamino)-5-ethynylpyrimidin-2-yl)thiophen-2-yl)-3-hydroxypropyl acetate]	10 to 50
C#Cc1cnc(N2CCCCC2C(=O)OC)nc1Nc1cc(C2CC2)[nH]n1 (stereo not shown) [Compound 244, methyl 1-[4-[(5-cyclopropyl-1H-pyrazol-3-yl)amino]-5-ethynyl-pyrimidin-2-yl]piperidine-2-carboxylate]	> 4000
C#Cc1cnc(N2CCCCC2C(=O)O)nc1Nc1cc(C2CC2)n[nH]1 (stereo not shown) [Compound 245, 1-[4-[(5-cyclopropyl-2H-pyrazol-3-yl)amino]-5-ethynyl-pyrimidin-2-yl]piperidine-2-carboxylic acid]	> 4000
C#Cc1cnc(-c2ccc(C(=O)C(=O)O)s2)nc1Nc1cc(C2CC2)[nH]n1 [Compound 246, 2-[5-[4-[(5-cyclopropyl-1H-pyrazol-3-yl)amino]-5-ethynyl-pyrimidin-2-yl]-2-thienyl]-2-oxo-acetic acid]	10 to 50
NS(=O)(=O)c1ccc(-c2ncc(Cl)c(Nc3cc(-c4ccco4)[nH]n3)n2)s1 [Compound 247, 5-[5-chloro-4-[[5-(2-furyl)-1H-pyrazol-3-yl]amino]-pyrimidin-2-yl]thiophene-2-sulfonamide]	100 to 500
C#Cc1cnc(N2CCCN(C)CC2)nc1Nc1cc(C2CC2)[nH]n1 [Compound 248, N-(5-cyclopropyl-1H-pyrazol-3-yl)-5-ethynyl-2-(4-methyl-1,4-diazepan-1-yl)-pyrimidin-4-amine]	> 4000
C#Cc1cnc(C2=CCNCC2)nc1Nc1cc(C2CC2)[nH]n1 [Compound 249, N-(5-cyclopropyl-1H-pyrazol-3-yl)-5-ethynyl-2-(1,2,3,6-tetrahydropyridin-4-yl)pyrimidin-4-amine]	> 4000
NNS(=O)(=O)c1ccc(-c2ncc(Cl)c(Nc3cc(C4CC4)[nH]n3)n2)s1 [Compound 251, 5-(5-chloro-4-(5-cyclopropyl-1H-pyrazol-3-ylamino)pyrimidin-2-yl)thiophene-2-sulfonohydrazide]	10 to 50
CC(C)(C)NS(=O)(=O)c1ccc(-c2ncc(NC=O)c(Nc3cc(C4CC4)[nH]n3)n2)s1 [Compound 253, N-[4-[(5-cyclopropyl-1H-pyrazol-3-yl)amino]-2-[5-(tert-butylsulfamoyl)-2-thienyl]-pyrimidin-5-yl]formamide]	100 to 500
C#Cc1cnc(-c2ccc(S(C)(=O)=O)s2)nc1Nc1cc(C2CC2)[nH]n1 [Compound 255, N-(5-cyclopropyl-4H-pyrazol-3-yl)-5-ethynyl-2-(5-(methylsulfonyl)thiophen-2-yl)pyrimidin-4-amine]	1 to 10
C#Cc1cnc(N2CCCN(C(C)=O)CC2)nc1Nc1cc(C2CC2)n[nH]1 [Compound 258, 1-[4-[4-[(5-cyclopropyl-2H-pyrazol-3-yl)amino]-5-ethynyl-pyrimidin-2-yl]-1,4-diazepan-1-yl]ethanone]	100 to 500
NS(=O)(=O)c1ccc(-c2ncc(Cl)c(Nc3cc(C4CCN(C(=O)OCc5ccccc5)C4)n[nH]3)n2)s1 (stereo not shown) [Compound 262, benzyl 3-[5-[[5-chloro-2-(5-sulfamoyl-2-thienyl)-pyrimidin-4-yl]amino]-1H-pyrazol-3-yl]pyrrolidine-1-carboxylate]	1000 to 2000
NS(=O)(=O)c1ccc(-c2ncc(Cl)c(Nc3cc(C4CCNC4)n[nH]3)n2)s1 (stereo not shown) [Compound 263, 5-[5-chloro-4-[(5-pyrrolidin-3-yl-2H-pyrazol-3-yl)amino]-pyrimidin-2-yl]thiophene-2-sulfonamide]	> 4000
C[S+]([O-])c1ccc(-c2ncc(Cl)c(Nc3cc(C4CC4)[nH]n3)n2)s1 (stereo not shown) [Compound 264, 5-chloro-N-(5-cyclopropyl-1H-pyrazol-3-yl)-2-(5-methylsulfinyl-2-thienyl)-pyrimidin-4-amine]	1 to 10
CC(C)(C)NS(=O)(=O)C/C=C/c1cccc(Nc2cc(C3CC3)[nH]n2)n1 [Compound 269, 3-[6-[(5-cyclopropyl-1H-pyrazol-3-yl)amino]-2-pyridyl]-N-tert-butyl-prop-2-ene-1-sulfonamide]	100 to 500

Structure (SMILES)	Ki [nM]
CC(C)(C)NS(=O)(=O)c1ccc(-c2cccc(Nc3cc(C4CC4)[nH]n3)n2)s1 [Compound 271, 5-[6-[(5-cyclopropyl-1H-pyrazol-3-yl)amino]-2-pyridyl]-N-tert-butyl-thiophene-2-sulfonamide]	10 to 50
NS(=O)(=O)c1ccc(-c2cccc(Nc3cc(C4CC4)[nH]n3)n2)s1 [Compound 272, 5-[6-[(5-cyclopropyl-1H-pyrazol-3-yl)amino]-2-pyridyl]thiophene-2-sulfonamide]	1 to 10
CC(C)(C)NS(=O)(=O)c1ccc(-c2ccc([N+](=O)[O-])c(Nc3cc(C4CC4)n[nH]3)n2)s1 [Compound 274, 5-[6-[(5-cyclopropyl-2H-pyrazol-3-yl)amino]-5-nitro-2-pyridyl]-N-tert-butyl-thiophene-2-sulfonamide]	50 to 100
Nc1ccc(-c2ccc(S(N)(=O)=O)s2)nc1Nc1cc(C2CC2)n[nH]1 [Compound 276, 5-[5-amino-6-[(5-cyclopropyl-2H-pyrazol-3-yl)amino]-2-pyridyl]thiophene-2-sulfonamide]	1 to 10
O=C1/C=C\c2c(n[nH]c2C2CC2)Nc2nc(ncc2Cl)-c2ccccc21 [Compound 277, chloro-cyclopropyl-BLAHone]	> 4000
CC(C)(C)NS(=O)(=O)c1ccc(-c2nc(Nc3cc(C4CC4)[nH]n3)cc(C(=O)O)n2)s1 [Compound 278, 6-[(5-cyclopropyl-1H-pyrazol-3-yl)amino]-2-[5-(tert-butylsulfamoyl)-2-thienyl]-pyrimidine-4-carboxylic acid]	100 to 500
CS(=O)(=O)NCc1ccc(-c2ncc(Cl)c(Nc3cc(C4CC4)n[nH]3)n2)s1 [Compound 280, N-[[5-[5-chloro-4-[(5-cyclopropyl-2H-pyrazol-3-yl)amino]-pyrimidin-2-yl]-2-thienyl]methyl]methanesulfonamide]	10 to 50
NS(=O)(=O)c1ccc(-c2ncc(/C=C/CO)c(Nc3cc(C4CC4)[nH]n3)n2)s1 [Compound 281, (E)-5-(4-(5-cyclopropyl-1H-pyrazol-3-ylamino)-5-(3-hydroxyprop-1-enyl)pyrimidin-2-yl)thiophene-2-sulfonamide]	1 to 10
CN(C)c1cc(Nc2cc(C3CC3)n[nH]2)nc(-c2ccc(S(N)(=O)=O)s2)n1 [Compound 282, 5-[4-[(5-cyclopropyl-2H-pyrazol-3-yl)amino]-6-dimethylamino-pyrimidin-2-yl]thiophene-2-sulfonamide]	2000 to 4000
NS(=O)(=O)c1ccc(-c2nc(Nc3cc(C4CC4)[nH]n3)cc(C(=O)O)n2)s1 [Compound 283, 6-[(5-cyclopropyl-1H-pyrazol-3-yl)amino]-2-(5-sulfamoyl-2-thienyl)-pyrimidine-4-carboxylic acid]	100 to 500
NS(=O)(=O)c1ccc(-c2nc(CO)cc(Nc3cc(C4CC4)[nH]n3)n2)s1 [Compound 285, 5-[4-[(5-cyclopropyl-1H-pyrazol-3-yl)amino]-6-(hydroxymethyl)pyrimidin-2-yl]thiophene-2-sulfonamide]	1 to 10
CC(C)(C)NS(=O)(=O)c1ccc(-c2nc(CO)cc(Nc3cc(C4CC4)[nH]n3)n2)s1 [Compound 286, 5-[4-[(5-cyclopropyl-1H-pyrazol-3-yl)amino]-6-(hydroxymethyl)pyrimidin-2-yl]-N-tert-butyl-thiophene-2-sulfonamide]	10 to 50
CC(=O)c1ccc(-c2ncc(Cl)c(Nc3cc(C4CC4)[nH]n3)n2)o1 [Compound 288, 1-[5-[5-chloro-4-[(5-cyclopropyl-1H-pyrazol-3-yl)amino]-pyrimidin-2-yl]-2-furyl]ethanone]	100 to 500
CC(O)c1ccc(-c2ncc(Cl)c(Nc3cc(C4CC4)[nH]n3)n2)o1 (stereo not shown) [Compound 289, 1-[5-[5-chloro-4-[(5-cyclopropyl-1H-pyrazol-3-yl)amino]-pyrimidin-2-yl]-2-furyl]ethanol]	100 to 500
CSc1cc(Nc2cc(C3CC3)n[nH]2)nc(-c2ccc(S(N)(=O)=O)s2)n1 [Compound 291, 5-[4-[(5-cyclopropyl-2H-pyrazol-3-yl)amino]-6-methylsulfanyl-pyrimidin-2-yl]thiophene-2-sulfonamide]	100 to 500
NS(=O)(=O)c1ccc(-c2nc(Nc3n[nH]c(C4CC4)c3Cl)cc(C(=O)O)n2)s1 [Compound 292, 6-[(4-chloro-5-cyclopropyl-1H-pyrazol-3-yl)amino]-2-(5-sulfamoyl-2-thienyl)-pyrimidine-4-carboxylic acid]	> 4000
Cc1nc(-c2ncc(Cl)c(Nc3cc(C4CC4)[nH]n3)n2)sc1C(C)O (stereo not shown) [Compound 296, 1-(2-(5-chloro-4-(5-cyclopropyl-1H-pyrazol-3-ylamino)pyrimidin-2-yl)-4-methylthiazol-5-yl)ethanol]	100 to 500
